Tests used:
NS3/NS4 complexes = NS3/NS4 complexes (Hepatitis C virus genotype 1a, UniProt P27958); experiment: NS3/NS4 inhibition assay (IC50); assay type: biochemical; conditions: NS3/NS4 activity; 23° C., 25 μM NS4A peptide
Source text: (§1) NS3-NS4 inhibition activity can be determined using known assay methods. For example, NS3/NS4 complexes may be formed and inhibitory concentrations of test compounds determined as described in U.S. Patent Application Publication Number 2007/0054842 paragraph numbers 1497-1509, which is incorporated herein by reference in its entirety. Similarly, hepatitis C replicon EC50 may be determined using known assay methods such as described in U.S. Patent Application Publication Number 2007/0054842 paragraph numbers 1510-1515, which is incorporated herein by reference in its entirety. Assays may be conducted at ambient temperature (23° C.) in assay buffer containing 50 mM Tris-HCl, pH 7.5, 15% glycerol, 0.6 mM Lauryldimethylamine Oxide (LDAO), 25 μM NS4A peptide, and 10 mM Dithiothreitol (DTT).

hepatitis C replicon = hepatitis C replicon EC50 assay; assay type: cell-based; conditions: Hepatitis C virus; hepatitis C replicon; read-out: EC50
Source text: as §1

Chain of NS3/NS4 complexes (P27958 1027-1657, one chain of several): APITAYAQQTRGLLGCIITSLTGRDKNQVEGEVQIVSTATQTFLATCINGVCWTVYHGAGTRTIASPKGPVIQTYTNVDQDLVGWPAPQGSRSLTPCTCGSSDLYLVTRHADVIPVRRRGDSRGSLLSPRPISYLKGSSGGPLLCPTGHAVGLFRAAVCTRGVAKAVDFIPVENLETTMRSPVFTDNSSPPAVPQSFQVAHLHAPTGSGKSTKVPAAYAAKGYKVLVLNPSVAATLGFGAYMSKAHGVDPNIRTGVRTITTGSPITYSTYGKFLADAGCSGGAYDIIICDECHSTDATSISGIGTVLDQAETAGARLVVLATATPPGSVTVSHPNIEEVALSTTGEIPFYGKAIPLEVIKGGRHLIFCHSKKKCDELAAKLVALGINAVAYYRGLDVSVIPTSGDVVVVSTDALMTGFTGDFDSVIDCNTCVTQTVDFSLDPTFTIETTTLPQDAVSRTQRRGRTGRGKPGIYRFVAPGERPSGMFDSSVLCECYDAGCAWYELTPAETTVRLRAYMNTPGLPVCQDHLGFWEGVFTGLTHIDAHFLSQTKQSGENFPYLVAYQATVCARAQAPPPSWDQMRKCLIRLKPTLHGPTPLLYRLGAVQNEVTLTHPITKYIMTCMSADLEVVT

COc1ccc2c(O[C@@H]3C[C@H]4C(=O)N[C@]5(C(=O)NS(=O)(=O)C6(C)CC6)C[C@H]5/C=C\CCCCC[C@H](Nc5ccc(F)c(F)c5)C(=O)N4C3)cc(-c3nc(C(C)C)cs3)nc2c1C [Compound 1001]
IC50 (NS3/NS4 complexes): < 10 nM
EC50 (hepatitis C replicon): < 10 nM

CC(C)n1c(O[C@@H]2C[C@H]3C(=O)N[C@]4(C(=O)NS(=O)(=O)C5(C)CC5)C[C@H]4/C=C\CCCCC[C@H](NC(=O)OC(C)(C)C)C(=O)N3C2)nc2c(-c3nc(C4CCCCC4)cs3)cccc21 [Compound 1769]
IC50 (NS3/NS4 complexes): < 10 nM
EC50 (hepatitis C replicon): < 10 nM

CC(C)n1c(O[C@@H]2C[C@H]3C(=O)N[C@]4(C(=O)NS(=O)(=O)C5CC5)C[C@H]4/C=C\CCCCC[C@H](NC(=O)OC(C)(C)C)C(=O)N3C2)nc2c(-c3cccs3)cccc21 [Compound 213]
IC50 (NS3/NS4 complexes): < 10 nM
EC50 (hepatitis C replicon): < 10 nM

Cc1ccc(-c2csc(-c3cccc4c3nc(O[C@@H]3C[C@H]5C(=O)N[C@]6(C(=O)NS(=O)(=O)C7(C)CC7)C[C@H]6/C=C\CCCCC[C@H](NC(=O)OC(C)(C)C)C(=O)N5C3)n4C(C)C)n2)cc1 [Compound 1709]
IC50 (NS3/NS4 complexes): < 10 nM
EC50 (hepatitis C replicon): 10 to 100 nM

CC(C)n1c(O[C@@H]2C[C@H]3C(=O)N[C@]4(C(=O)O)C[C@H]4/C=C\CCCCC[C@H](NC(=O)OC(C)(C)C)C(=O)N3C2)nc2ccccc21 [Compound 208]
IC50 (NS3/NS4 complexes): < 10 nM
EC50 (hepatitis C replicon): > 100 nM

CC(C)n1c(O[C@@H]2C[C@H]3C(=O)N[C@]4(C(=O)NS(=O)(=O)C5(C)CC5)C[C@H]4/C=C\CCCCC[C@H](NC(=O)OC(C)(C)C)C(=O)N3C2)nc2c(-c3nc(CC4CCCCC4)cs3)cccc21 [Compound 1773]
IC50 (NS3/NS4 complexes): < 10 nM
EC50 (hepatitis C replicon): < 10 nM

CC(C)n1c(O[C@@H]2C[C@H]3C(=O)N[C@]4(C(=O)NS(=O)(=O)C5(C)CC5)C[C@H]4/C=C\CCCCC[C@H](NC(=O)OC(C)(C)C)C(=O)N3C2)nc2c(-c3nc4c(s3)CCCC4(C)C)cccc21 [Compound 1774]
IC50 (NS3/NS4 complexes): < 10 nM
EC50 (hepatitis C replicon): 10 to 100 nM

CC(C)n1c(O[C@@H]2C[C@H]3C(=O)N[C@]4(C(=O)NS(=O)(=O)N(C)C)C[C@H]4/C=C\CCCCC[C@H](NC(=O)OC(C)(C)C)C(=O)N3C2)nc2c(-c3nc4c(s3)CCCC4(C)C)cccc21 [Compound 1775]
IC50 (NS3/NS4 complexes): < 10 nM
EC50 (hepatitis C replicon): 10 to 100 nM

CC(C)n1c(O[C@@H]2C[C@H]3C(=O)N[C@]4(C(=O)NS(=O)(=O)C5(C)CC5)C[C@H]4/C=C\CCCCC[C@H](NC(=O)N4CCCC4)C(=O)N3C2)nc2c(-c3nc(-c4ccccc4)cs3)cccc21 [Compound 1732]
IC50 (NS3/NS4 complexes): < 10 nM
EC50 (hepatitis C replicon): < 10 nM

CCc1cccc2c1nc(O[C@@H]1C[C@H]3C(=O)N[C@]4(C(=O)NS(=O)(=O)N(C)C)C[C@H]4/C=C\CCCCC[C@H](NC(=O)OC(C)(C)C)C(=O)N3C1)n2C(C)C [Compound 266]
IC50 (NS3/NS4 complexes): < 10 nM
EC50 (hepatitis C replicon): < 10 nM

CC1(S(=O)(=O)NC(=O)[C@@]23C[C@H]2/C=C\CCCCC[C@H](Nc2ccccc2)C(=O)N2C[C@H](n4nnc(-c5cccc(-c6nccs6)c5)n4)C[C@H]2C(=O)N3)CC1 [Compound 805]
IC50 (NS3/NS4 complexes): < 10 nM
EC50 (hepatitis C replicon): > 100 nM

CC(C)(C)OC(=O)N[C@H]1CCCCC/C=C\[C@@H]2C[C@@]2(C(=O)NS(=O)(=O)C2(C)CC2)NC(=O)[C@@H]2C[C@@H](Oc3ccc4ncn(-c5ccccc5)c4c3)CN2C1=O [Compound 299]
IC50 (NS3/NS4 complexes): < 10 nM
EC50 (hepatitis C replicon): 10 to 100 nM

COc1cccc2c1nc(O[C@@H]1C[C@H]3C(=O)N[C@]4(C(=O)NS(=O)(=O)N(C)C)C[C@H]4/C=C\CCCCC[C@H](NC(=O)OC(C)(C)C)C(=O)N3C1)n2C(C)C [Compound 286]
IC50 (NS3/NS4 complexes): < 10 nM
EC50 (hepatitis C replicon): < 10 nM

COc1ccc(-c2cccc3c2nc(O[C@@H]2C[C@H]4C(=O)N[C@]5(C(=O)NS(=O)(=O)N(C)C)C[C@H]5/C=C\CCCCC[C@H](NC(=O)OC(C)(C)C)C(=O)N4C2)n3C(C)C)cn1 [Compound 1739]
IC50 (NS3/NS4 complexes): < 10 nM
EC50 (hepatitis C replicon): 10 to 100 nM

CC(C)n1c(O[C@@H]2C[C@H]3C(=O)N[C@]4(C(=O)NS(=O)(=O)N(C)C)C[C@H]4/C=C\CCCCC[C@H](NC(=O)OC(C)(C)C)C(=O)N3C2)nc2c(-c3nc(Cc4ccc(F)cc4)cs3)cccc21 [Compound 1759]
IC50 (NS3/NS4 complexes): < 10 nM
EC50 (hepatitis C replicon): < 10 nM

CC1(S(=O)(=O)NC(=O)[C@@]23C[C@H]2/C=C\CCCCC[C@H](Nc2cccc(F)c2)C(=O)N2C[C@H](O)C[C@H]2C(=O)N3)CC1 [Compound 1003]
IC50 (NS3/NS4 complexes): > 100 nM
EC50 (hepatitis C replicon): 10 to 100 nM

COc1ccc(Cc2csc(-c3cccc4c3nc(O[C@@H]3C[C@H]5C(=O)N[C@]6(C(=O)NS(=O)(=O)N(C)C)C[C@H]6/C=C\CCCCC[C@H](NC(=O)OC(C)(C)C)C(=O)N5C3)n4C(C)C)n2)cc1OC [Compound 1757]
IC50 (NS3/NS4 complexes): < 10 nM
EC50 (hepatitis C replicon): < 10 nM

CC(C)c1nc(-c2cccc3c2nc(O[C@@H]2C[C@H]4C(=O)N[C@]5(C(=O)NS(=O)(=O)C6(C)CC6)C[C@H]5/C=C\CCCCC[C@H](NC(=O)OC(C)(C)C)C(=O)N4C2)n3C(C)C)oc1C(C)C [Compound 1212]
IC50 (NS3/NS4 complexes): < 10 nM
EC50 (hepatitis C replicon): < 10 nM

CC(C)n1c(O[C@@H]2C[C@H]3C(=O)N[C@]4(C(=O)NS(=O)(=O)C5(C)CC5)C[C@H]4/C=C\CCCCC[C@H](NC(=O)OC(C)(C)C)C(=O)N3C2)nc2c(NS(=O)(=O)Cc3ccccc3)cccc21 [Compound 1401]
IC50 (NS3/NS4 complexes): < 10 nM
EC50 (hepatitis C replicon): < 10 nM

CC(C)c1csc(-c2cccc3c2nc(O[C@@H]2C[C@H]4C(=O)N[C@]5(C(=O)NS(=O)(=O)C6(C)CC6)C[C@H]5/C=C\CCCCC[C@H](Nc5nccs5)C(=O)N4C2)n3C(C)C)n1 [Compound 1418]
IC50 (NS3/NS4 complexes): < 10 nM
EC50 (hepatitis C replicon): < 10 nM

CNC(=O)Nc1cccc2c1nc(O[C@@H]1C[C@H]3C(=O)N[C@]4(C(=O)NS(=O)(=O)C5(C)CC5)C[C@H]4/C=C\CCCCC[C@H](Nc4ccccc4)C(=O)N3C1)n2C(C)C [Compound 1406]
IC50 (NS3/NS4 complexes): < 10 nM
EC50 (hepatitis C replicon): > 100 nM

CC(C)n1c(O[C@@H]2C[C@H]3C(=O)N[C@]4(C(=O)NS(=O)(=O)C5CC5)C[C@H]4/C=C\CCCCC[C@H](NC(=O)OC(C)(C)C)C(=O)N3C2)nc2c(-c3ncco3)cccc21 [Compound 212]
IC50 (NS3/NS4 complexes): < 10 nM
EC50 (hepatitis C replicon): < 10 nM

COc1ccc2c(O[C@@H]3C[C@H]4C(=O)N[C@]5(C(=O)NS(=O)(=O)C6(C)CC6)C[C@H]5/C=C\CCCCC[C@H](Nc5cccc(C(=O)O)c5)C(=O)N4C3)cc(-c3nc(C(C)C)cs3)nc2c1C [Compound 103]
IC50 (NS3/NS4 complexes): < 10 nM
EC50 (hepatitis C replicon): < 10 nM

CC(C)n1c(O[C@@H]2C[C@H]3C(=O)N[C@]4(C(=O)NS(=O)(=O)N(C)C)C[C@H]4/C=C\CCCCC[C@H](NC(=O)OC(C)(C)C)C(=O)N3C2)nc2c(NC(=O)OCc3ccccc3)cccc21 [Compound 1428]
IC50 (NS3/NS4 complexes): < 10 nM
EC50 (hepatitis C replicon): < 10 nM

COc1ccc2c(O[C@@H]3C[C@H]4C(=O)N[C@]5(C(=O)NS(=O)(=O)C6(C)CC6)C[C@H]5/C=C\CCCCC[C@H](Nc5cccc(C(=O)N6CCN(c7ccccn7)CC6)c5)C(=O)N4C3)cc(-c3nc(C(C)C)cs3)nc2c1C [Compound 126]
IC50 (NS3/NS4 complexes): < 10 nM
EC50 (hepatitis C replicon): < 10 nM

COc1cccc2c1nc(O[C@@H]1C[C@H]3C(=O)N[C@]4(C(=O)NS(=O)(=O)C5(C)CC5)C[C@H]4/C=C\CCCCC[C@H](Nc4ccccc4)C(=O)N3C1)n2C(C)C [Compound 285]
IC50 (NS3/NS4 complexes): < 10 nM
EC50 (hepatitis C replicon): < 10 nM

CC(C)n1c(O[C@@H]2C[C@H]3C(=O)N[C@]4(C(=O)NS(=O)(=O)N(C)C)C[C@H]4/C=C\CCCCC[C@H](NC(=O)OC(C)(C)C)C(=O)N3C2)nc2c(-c3nc(-c4ccccn4)cs3)cccc21 [Compound 1735]
IC50 (NS3/NS4 complexes): < 10 nM
EC50 (hepatitis C replicon): < 10 nM

CC(C)n1c(O[C@@H]2C[C@H]3C(=O)N[C@]4(C(=O)NS(=O)(=O)C5(C)CC5)C[C@H]4/C=C\CCCCC[C@H](Nc4ccccc4)C(=O)N3C2)nc2c(-c3cccc(C#N)c3)cccc21 [Compound 241]
IC50 (NS3/NS4 complexes): < 10 nM
EC50 (hepatitis C replicon): 10 to 100 nM

COc1ccc2c(O[C@@H]3C[C@H]4C(=O)N[C@]5(C(=O)NS(=O)(=O)C6(C)CC6)C[C@H]5/C=C\CCCCC[C@H](Nc5cccc(C(=O)N6CCNCC6)c5)C(=O)N4C3)cc(-c3nc(C(C)C)cs3)nc2c1C [Compound 107]
IC50 (NS3/NS4 complexes): < 10 nM
EC50 (hepatitis C replicon): < 10 nM

COc1ccc2c(O[C@@H]3C[C@H]4C(=O)N[C@]5(C(=O)NS(=O)(=O)C6(C)CC6)C[C@H]5/C=C\CCCCC[C@H](NC(=O)N5CCCC5)C(=O)N4C3)cc(-c3nc(C(C)C)cs3)nc2c1C [Compound 1733]
IC50 (NS3/NS4 complexes): < 10 nM
EC50 (hepatitis C replicon): < 10 nM

CC(C)n1c(O[C@@H]2C[C@H]3C(=O)N[C@]4(C(=O)NS(=O)(=O)N(C)C)C[C@H]4/C=C\CCCCC[C@H](NC(=O)OC(C)(C)C)C(=O)N3C2)nc2c(C(=O)N(C)C)cccc21 [Compound 279]
IC50 (NS3/NS4 complexes): < 10 nM
EC50 (hepatitis C replicon): > 100 nM

CC(C)n1c(O[C@@H]2C[C@H]3C(=O)N[C@]4(C(=O)NS(=O)(=O)N(C)C)C[C@H]4/C=C\CCCCC[C@H](NC(=O)OC(C)(C)C)C(=O)N3C2)nc2c(-c3nc(C(C)(C)C)cs3)cccc21 [Compound 232]
IC50 (NS3/NS4 complexes): < 10 nM
EC50 (hepatitis C replicon): 10 to 100 nM

CC(C)n1c(O[C@@H]2C[C@H]3C(=O)N[C@]4(C(=O)NS(=O)(=O)C5(C)CC5)C[C@H]4/C=C\CCCCC[C@H](Nc4ccccc4)C(=O)N3C2)nc2c(-c3cccc(F)c3)cccc21 [Compound 239]
IC50 (NS3/NS4 complexes): < 10 nM
EC50 (hepatitis C replicon): 10 to 100 nM

Cc1cccc(Cc2csc(-c3cccc4c3nc(O[C@@H]3C[C@H]5C(=O)N[C@]6(C(=O)NS(=O)(=O)C7(C)CC7)C[C@H]6/C=C\CCCCC[C@H](NC(=O)OC(C)(C)C)C(=O)N5C3)n4C(C)C)n2)c1 [Compound 1718]
IC50 (NS3/NS4 complexes): < 10 nM
EC50 (hepatitis C replicon): < 10 nM

CC(C)c1csc(-c2cccc3c2nc(O[C@@H]2C[C@H]4C(=O)N[C@]5(C(=O)NS(=O)(=O)C6CC6)C[C@H]5/C=C\CCCCC[C@H](NC(=O)OC(C)(C)C)C(=O)N4C2)n3C(C)C)n1 [Compound 218]
IC50 (NS3/NS4 complexes): < 10 nM
EC50 (hepatitis C replicon): < 10 nM
